Results: publication PMC4105567, “Aurora Kinases as Druggable Targets in Pediatric Leukemia: Heterogeneity in Target Modulation Activities and Cytotoxicity by Diverse Novel Therapeutic Agents” (PLoS ONE, 2014)
Where two headings read alike, the source gives them in different places.

How the values were obtained:
[1] = system: Patient #1 B-ALL primary leukemia cells; assay: Cytotoxicity assay, primary sample Patient #1; assay type: cell-based, human; settings: Homo sapiens, 96 h, four days in culture, Alamar blue assay or automated microscopy, one complete study
Procedure: (§1) These include B-ALL (Patient #1), relapsed AML (Patient #2), AML/CML (Patient #3), infant ALL (Patient #4), and initial ALL presenting with secondary AML (Patient #5). […] The diluted sample was then layered on a Ficoll-Paque (GE Healthcare, Piscataway, New Jersey) gradient at a 1∶2 ratio of Ficoll to diluted sample. Samples were then centrifuged 1800 rpm for 20 minutes at room temperature. The buffy coat was removed with a pipette and transferred to a new centrifuge tube and diluted with PBS. After an additional centrifugation at 1200 rpm, the white blood cell pellet was washed with PBS and centrifuged one last time. Cells were re-suspended in Opti-MEM and viable cells were counted using trypan blue (Invitrogen, Life Technologies Corporation, Burlington, Ontario) exclusion on a haemocytometer. An identical protocol was followed for the isolation of white blood cells, referred to as “normal lymphocytes” in the following paragraphs, from healthy volunteers. Samples grown in culture for up to six months were cultured in Opti-MEM medium supplemented with 10% heat inactivated FBS, penicillin/streptomycin and 2-mercaptoethanol.
(§2) For cytotoxicity profiling of Aurora kinase inhibitors against leukemia cell lines, inhibitors or vehicle control (DMSO, Sigma-Aldrich) were diluted in 100 µl of Opti-MEM per well in 96 well plates (Grenier Bio-One, Monroe, North Carolina) in triplicate at final concentrations ranging from 1×10^−6 to 10 µM. 1×10^4 cells per well were seeded and plates were incubated for 4 days. Following incubation for 4 days, cell survival was quantified by Alamar blue assay (Invitrogen) or automated inverted microscopy using the Celigo Cell Cytometer (Cyntellect, San Diego, California). […] During this period of incubation, the absorbance at 570–620 nm was measured (Opsys MR Plate Reader, Dynex Technologies, Chantilly, Virginia) at various time points, depending on the cell line or sample. Percent survival was calculated by comparing the absorbance ratio of the test well to the control well multiplied by 100%, as indicated in the following formula: […]
(§3) For automated inverted microscopy, the number of cells in each well was determined using the direct cell counting application as described previously. Briefly, following adjustment of image acquisition settings for bright-field imaging, the wells containing cells and appropriate dilutions of inhibitors were individually scanned. Based on these images, analysis parameters, including intensity threshold and cell diameter, were modified for optimal inclusion of viable cells in treated and control wells. These parameters were applied for subsequent replicates involving the same leukemia cell line or sample. The percent survival was then calculated as a ratio of the number of cells in treated wells to the number of cells in control wells multiplied by 100%. Given that Aurora kinase inhibitors interfere with cytokinesis, cells that are committed to death may still contain enlarging but intact cytoplasmic content before the eventual loss of cytoplasmic membrane integrity. The accuracy of Alamar blue assay may be, in theory, affected by the timing of these events.

CEM T-ALL cell line = assay: Cytotoxicity assay, CEM; assay type: cell-based, human; settings: Homo sapiens, 96 h, four days in culture, Alamar blue assay or automated microscopy, ± SD, three experiments
Procedure: (§4) Cell lines were cultured in Opti-MEM medium (Gibco, Life Technologies Corporation, Burlington, Ontario) supplemented with 10% heat inactivated fetal bovine serum (FBS) (Gibco), 100 units/ml penicillin and 100 units/ml streptomycin (Gibco) and 0.05 mM 2-mercaptoethanol (Sigma-Aldrich, Oakville, Ontario) in T25 flasks (Nalge Nunc, Rochester, New York) or T75 flasks (Corning Incorporated, Corning, New York). All cell cultures were maintained at 37°C in a humidified incubator with 5% CO2.
as §2, §3

Bone Marrow Stroma = assay: Cytotoxicity assay, bone marrow stroma; assay type: cell-based, human; settings: Homo sapiens, 96 h; bone marrow stroma (control for non-leukemia cytotoxicity); four days in culture; ± SD, three experiments
Procedure: as §2, §3

[2] = system: Patient #2 relapsed AML primary leukemia cells; assay: Cytotoxicity assay, primary sample Patient #2; assay type: cell-based, human; settings: Homo sapiens, 96 h, four days in culture, Alamar blue assay or automated microscopy, one complete study
Procedure: as §1, §2, §3

TIB-202 AML cell line = assay: Cytotoxicity assay, TIB-202; assay type: cell-based, human; settings: Homo sapiens, 96 h; AML cell line TIB-202; four days in culture; Alamar blue assay or automated microscopy; ± SD, three experiments
Procedure: as §4, §2, §3

Molt-3 T-ALL cell line = assay: Cytotoxicity assay, Molt-3; assay type: cell-based, human; settings: Homo sapiens, 96 h; T-ALL cell line Molt-3; four days in culture; Alamar blue assay or automated microscopy; ± SD, three experiments
Procedure: as §4, §2, §3

NB4 APML cell line = assay: Cytotoxicity assay, NB4; assay type: cell-based, human; settings: Homo sapiens, 96 h, four days in culture, Alamar blue assay or automated microscopy, ± SD, three experiments
Procedure: as §4, §2, §3

HL-60 APML cell line = assay: Cytotoxicity assay, HL-60; assay type: cell-based, human; settings: Homo sapiens, 96 h; APML cell line HL-60; four days in culture; Alamar blue assay or automated microscopy; ± SD, three experiments
Procedure: as §4, §2, §3

MV4-11 AML cell line = assay: Cytotoxicity assay, MV4-11; assay type: cell-based, human; settings: Homo sapiens, 96 h; AML cell line MV4-11; four days in culture; Alamar blue assay or automated microscopy; ± SD, three experiments
Procedure: as §4, §2, §3

C1 B-ALL cell line = assay: Cytotoxicity assay, C1; assay type: cell-based, human; settings: Homo sapiens, 96 h, four days in culture, Alamar blue assay or automated microscopy, ± SD, three experiments
Procedure: as §4, §2, §3

SEM B-ALL cell line = assay: Cytotoxicity assay, SEM; assay type: cell-based; settings: Homo sapiens, 96 h, four days in culture, Alamar blue assay or automated microscopy, ± SD, three experiments
Procedure: as §4, §2, §3

Aurora-C = settings: read-out: Targets (IC50 Value): Aurora-C; literature values; ref [10],[40],[44]–[64] as listed per inhibitor in Table 1; cited from earlier work
UOCB1 B-ALL cell line = assay: Cytotoxicity assay, UOCB1; assay type: cell-based, human; settings: Homo sapiens, UoC-B1, 96 h, four days in culture, Alamar blue assay or automated microscopy, ± SD, three experiments
Procedure: as §4, §2, §3

HL-60 RA APML cell line = assay: Cytotoxicity assay, HL-60 RA; assay type: cell-based, human; settings: Homo sapiens, 96 h; APML cell line HL-60 RA; four days in culture; Alamar blue assay or automated microscopy; ± SD, three experiments
Procedure: as §4, §2, §3

[3] = system: Patient #5 ALL/AML primary leukemia cells; assay: Cytotoxicity assay, primary sample Patient #5; assay type: cell-based, human; settings: Homo sapiens, 96 h, read-out: IC50, Patient #5 ALL/AML
Procedure: as §1, §2, §3

B1 B-ALL cell line = assay: Cytotoxicity assay, B1; assay type: cell-based, human; settings: Homo sapiens, 96 h, four days in culture, Alamar blue assay or automated microscopy, ± SD, three experiments
Procedure: as §4, §2, §3

Nalm6 B-ALL cell line = assay: Cytotoxicity assay, Nalm6; assay type: cell-based, human; settings: Homo sapiens, NALM-6, 96 h, four days in culture, Alamar blue assay or automated microscopy, ± SD, three experiments
Procedure: as §4, §2, §3

KOPN8 B-ALL cell line = assay: Cytotoxicity assay, KOPN8; assay type: cell-based, human; settings: Homo sapiens, KOPN-8, 96 h, four days in culture, Alamar blue assay or automated microscopy, ± SD, three experiments
Procedure: as §4, §2, §3

Molm13 AML cell line = assay: Cytotoxicity assay, Molm13; assay type: cell-based, human; settings: Homo sapiens, MOLM-13, 96 h, four days in culture, Alamar blue assay or automated microscopy, ± SD, three experiments
Procedure: as §4, §2, §3

[4] = system: Patient #4 infant leukemia primary cells; assay: Cytotoxicity assay, primary sample Patient #4; assay type: cell-based, human; settings: Homo sapiens, 96 h, four days in culture, Alamar blue assay or automated microscopy, one complete study
Procedure: as §1, §2, §3

[5] = system: Patient #3 AML/CML primary leukemia cells; assay: Cytotoxicity assay, primary sample Patient #3; assay type: cell-based, human; settings: Homo sapiens, 96 h, four days in culture, Alamar blue assay or automated microscopy, one complete study
Procedure: as §1, §2, §3

Normal Lymphocytes = assay: Cytotoxicity assay, normal lymphocytes; assay type: cell-based, human; settings: Homo sapiens, Lymphocyte, 96 h; normal lymphocytes (control for non-leukemia cytotoxicity); four days in culture; ± SD, three experiments
Procedure: as §1, §2, §3

[6] = system: normal cells versus leukemia cell lines; assay: Comparison of cytotoxicity IC50 values, normal cells versus leukemia cell lines; assay type: cell-based, human; settings: normal lymphocytes and bone marrow stroma versus leukemia cell lines of Table 2
Procedure: as §2, §3

Aurora-B = system: Aurora-B; set-up: method as in earlier work; settings: literature values; ref [10],[22],[27],[40],[44]–[64] as listed per inhibitor in Table 1; read-out: Targets (IC50 Value): Aurora-B; cited from earlier work
[7] = primary sample, four days in culture, Alamar blue assay or automated microscopy, one complete study

| Compound | IC50 [1] | IC50 (CEM T-ALL cell line) | IC50 (Bone Marrow Stroma) | IC50 [2] | IC50 (TIB-202 AML cell line) | IC50 (Molt-3 T-ALL cell line) | IC50 (NB4 APML cell line) | IC50 (HL-60 APML cell line) | IC50 (MV4-11 AML cell line) | IC50 (C1 B-ALL cell line) | IC50 (SEM B-ALL cell line) | IC50 (Aurora-C) | IC50 (UOCB1 B-ALL cell line) | IC50 (HL-60 RA APML cell line) | IC50 (B1 B-ALL cell line) | IC50 (Nalm6 B-ALL cell line) | IC50 (KOPN8 B-ALL cell line) | IC50 (Molm13 AML cell line) | IC50 [4] | IC50 [5] | also measured |
| --- | --- | --- | --- | --- | --- | --- | --- | --- | --- | --- | --- | --- | --- | --- | --- | --- | --- | --- | --- | --- | --- |
| O=C(Nc1cccc(Cl)c1)Nc1ncc(CCNc2ncnc3ccsc23)s1 [SNS-314] | < 0.001 nM | < 0.001 nM | > 10000 nM | 0.5 nM | < 0.001 nM | < 0.001 nM | 6 ± 4 nM | 0.02 nM | < 0.001 nM | < 0.001 nM | < 0.001 nM | 3 nM | < 0.001 nM | < 0.001 nM | < 0.001 nM | < 0.001 nM | < 0.001 nM | < 0.001 nM | 8000 nM | 4000 nM | IC50 [3]: < 0.001 nM; IC50 (Normal Lymphocytes): 4000 ± 2000 nM |
| CCc1cccc(CC)c1NC(=O)N1Cc2n[nH]c(NC(=O)c3ccc(N4CCN(C)CC4)cc3)c2C1 [PHA-680632] | 10 nM | 300 ± 100 nM | 2000 ± 900 nM | 2000 nM | 6000 ± 1000 nM | 100 ± 60 nM | 900 ± 90 nM | 6000 ± 2000 nM | 300 ± 200 nM | 100 ± 50 nM | 800 ± 300 nM | 120 nM | 1000 ± 500 nM | 90 ± 10 nM | 5000 ± 900 nM | 400 ± 200 nM | 60 ± 20 nM | 30 ± 20 nM | > 10000 nM | > 10000 nM | IC50 values for the normal cells compared with IC50 values for the leukemia cell lines (potential therapeutic window) [6]: lower than the IC50 values for the normal cells, but not as pronounced; IC50 (Aurora-B): 135 nM; IC50 [3]: 0.8 nM; IC50 (Normal Lymphocytes): > 10000 nM |
| CO[C@@H](C(=O)N1Cc2n[nH]c(NC(=O)c3ccc(N4CCN(C)CC4)cc3)c2C1)c1ccccc1 [PHA-739358] | 0.9 nM | 10 ± 6 nM | 3000 ± 1000 nM | 300 nM | 2000 ± 900 nM | 4 ± 2 nM | 200 ± 100 nM | 900 ± 100 nM | 3 ± 2 nM | 8 ± 1 nM | 80 ± 20 nM | 61 nM | 60 ± 20 nM | 7 ± 1 nM | 2000 ± 900 nM | 9 ± 0.9 nM | 2 ± 1 nM | 6 ± 1 nM | > 10000 nM | > 10000 nM | IC50 values for the normal cells compared with IC50 values for the leukemia cell lines (potential therapeutic window) [6]: lower than the IC50 values for the normal cells, but not as pronounced; IC50 [3, 7]: 1 nM; IC50 (Normal Lymphocytes): > 10000 nM |
| Cc1nc(N)sc1-c1ccnc(Nc2ccc(N3CCOCC3)cc2)n1 [CYC116] | 10 nM | 70 ± 9 nM | 5000 ± 2000 nM | 70 nM | 600 ± 50 nM | 70 ± 20 nM | 3000 ± 2000 nM | 7000 ± 3000 nM | 5 ± 4 nM | 200 ± 100 nM | 100 ± 4 nM | 69 nM | 200 ± 90 nM | 300 ± 80 nM | 1000 ± 600 nM | 500 ± 300 nM | 1000 ± 600 nM | 400 ± 200 nM | > 10000 nM | > 10000 nM | IC50 values for the normal cells compared with IC50 values for the leukemia cell lines (potential therapeutic window) [6]: lower than the IC50 values for the normal cells, but not as pronounced; IC50 [3, 7]: 0.4 nM; IC50 (Normal Lymphocytes): > 10000 nM |
